{"source": "patent US6319894A", "about": "“Complexes and combinations of fetuin with therapeutic agents” (The Picower Institute for Medical Research, priority 1997, dated 2001)", "key": {"[1]": {"system": "LPS-stimulated human PBMCs (TNF production)", "experiment": "TNF production in LPS-stimulated human PBMCs", "type": "cell-based", "conditions": "CNI-1493 50 nM, FIG. 11; for enhancement of CNI-1493 activity (TNF suppression in PBMCs): fetuin 1.0 μg/ml or 10 μg/ml"}, "[2]": {"system": "LPS-stimulated RAW 264.7 cells (inducible nitric oxide synthase, iNOS)", "conditions": "pre-treatment; prior studies; cited from earlier work"}, "[3]": {"system": "LPS-stimulated RAW 264.7 cells (TNF production)", "experiment": "TNF production (ELISA) in LPS-stimulated RAW 264.7 cells", "type": "cell-based, murine", "conditions": "for inhibition at 2.5 µM: RAW264.7, 4 h", "method": "(§1) Typically, cultures were maintained in 150-mm plates with 30 mls culture medium until they reached 80-90% confluence, and were then subjected to different experimental protocols. […] The incubation was continued for another 24 hours before subjecting the cultures to further experiments.\n(§2) LPS (endotoxin) was sonicated for 10 minutes and added to culture media to achieve the desired final concentration, typically 100 ng/ml."}, "arginine uptake": {"system": "arginine uptake", "experiment": "Assay for arginine uptake", "type": "cell-based"}, "[4]": {"system": "LPS-stimulated RAW 264.7 cells (IL-1 β, IL-6, MIP-1α, and MIP-1β)", "conditions": "pre-treatment; prior studies; cited from earlier work"}, "[5]": {"system": "LPS-stimulated RAW 264.7 cells (LPS-inducible arginase II activity)", "experiment": "Urea production (LPS-inducible arginase II functional assay) in LPS-stimulated RAW 264.7 cells", "type": "cell-based, murine", "method": "as §1, §2\nAccumulation of urea in the cell culture medium was measured as a functional assay of LPS-inducible arginase II activity. […] The optical density at 535 nm was measured, and urea concentrations were calculated by comparison with OD535 of standard dilutions of urea prepared in culture medium.\nWhole-cell lysate preparations were fractionated by sequential ultrafiltration over Amicon Centricon®-100, and Centricon®-30 filters, respectively."}, "[6]": {"system": "human peripheral blood mononuclear cells", "conditions": "background statement, cited from earlier work"}, "NO production": {"system": "NO production", "conditions": "background statement; cited from earlier work"}, "[7]": {"system": "LPS-stimulated RAW 264.7 cells (inducible nitric oxide synthase, iNOS)", "experiment": "NO / nitrite production (Griess reaction, iNOS activity) in LPS-stimulated RAW 264.7 cells", "type": "cell-based, murine", "conditions": "for augmentation of CNI-1493 activity (nitrite production): glycoprotein 2.5 μg/ml, CNI-1493 2.0 μM, FIG. 13", "method": "as §1, §2\nInducible nitric oxide synthase activity (iNOS) was assayed indirectly by measuring NO^2- production. NO^2- was measured by a colorimetric assay based on the Griess reaction. […] The optical density was read at 560 nm after 10 min, and NO^2- concentration was determined with reference to a standard curve by using concentrations of 1.5 to 50 μM sodium nitrite in culture medium."}, "[8]": {"system": "LPS-stimulated RAW 264.7 cells (TNF production)", "conditions": "pre-treatment; prior studies; cited from earlier work"}, "[9]": {"system": "LPS-stimulated RAW 264.7 cells (LPS-inducible arginase II activity)", "conditions": "pre-treatment; prior studies; cited from earlier work"}, "rat paw edema": {"system": "rat paw edema", "conditions": "carageenan administration; background statement; cited from earlier work"}, "[10]": {"experiment": "Charge at physiological pH", "type": "physicochemical"}, "[11]": {"system": "mice, endotoxin (LPS) lethality", "conditions": "in vivo; background statement; cited from earlier work"}, "[12]": {"system": "LPS-challenged mice (serum TNF)", "experiment": "Serum TNF levels in LPS-challenged mice", "type": "in vivo", "conditions": "fetuin 20 mg/kg pretreatment 1 hour; CNI-1493 2.5 mg/kg ip; LPS 13 mg/kg; serum at four hours; FIG. 12", "method": "The fetuin pretreatment dose was 20 mg/kg."}, "[13]": {"conditions": "LPS-activated macrophages, CNI-1493 alone"}, "[14]": {"conditions": "non-responsive cultures (≥56 hours after 1:4 split), CNI-1493 up to 5 μM"}}, "note": "Structures can show the parent of a compound that is named as a salt. Where two headings read alike, the source gives them in different places."}
{"molecule": "CC(=NNC(=N)N)c1cc(NC(=O)CCCCCCCCC(=O)Nc2cc(C(C)=NNC(=N)N)cc(C(C)=NNC(=N)N)c2)cc(C(C)=NNC(=N)N)c1", "note": "[CNI-1493, N,N'-bis[3,5-bis[1-(aminoiminomethyl)hydrazonoethyl]phenyl]decanediamide tetrahydrochloride]", "values": [{"measurement": "suppression of TNF production in PBMCs by CNI-1493", "setting": "[1]", "value": "active in suppressing TNF production"}, {"measurement": "suppression of LPS-stimulated NO production", "setting": "[2]", "value": "suppresses"}, {"measurement": "suppression of TNF-α production", "setting": "[3]; [13]", "value": "dose-dependent suppression"}, {"measurement": "inhibition at 2.5 µM", "setting": "[3]; Mus musculus, read-out: suppression of TNF accumulation", "value": "< 10", "unit": "%"}, {"measurement": "inhibition at 2.5 µM", "setting": "[3]; Mus musculus, read-out: suppression of TNF production", "value": "> 90", "unit": "%"}, {"measurement": "IC50", "setting": "[3]; Mus musculus, RAW264.7, responsive cultures, stated as approximately the same as the urea IC50, read-out: IC50 with respect to TNF production", "value": "< 2000", "unit": "nM"}, {"measurement": "inhibition of TNF levels in culture supernatants", "setting": "[3]; low serum precultured (non-responsive) cells, FIG. 1", "value": "not responsive"}, {"measurement": "effect on level of TNF", "setting": "[3]; [14]", "value": "not reduced"}, {"measurement": "IC50", "setting": "arginine uptake", "value": "~10", "unit": "µM"}, {"measurement": "suppression of several other cytokines such as IL-1 β, IL-6, MIP-1α, and MIP-1β", "setting": "[4]", "value": "suppresses"}, {"measurement": "suppression of urea production", "setting": "[5]; [13]", "value": "dose-dependent suppression of urea production"}, {"measurement": "inhibition at 5 µM", "setting": "[5]; Mus musculus, RAW264.7, 20 h, read-out: decrease in urea accumulation compared to control", "value": "> 95", "unit": "%"}, {"measurement": "inhibition at 2.5 µM", "setting": "[5]; Mus musculus, RAW264.7, read-out: suppression of urea", "value": "> 50", "unit": "%"}, {"measurement": "inhibition at 2.5 µM", "setting": "[5]; Mus musculus, RAW264.7, read-out: suppression of urea accumulation", "value": "< 10", "unit": "%"}, {"measurement": "IC50", "setting": "[5]; Mus musculus, RAW264.7, responsive cultures, estimated, read-out: IC50 (concentration of 50% inhibition) with respect to urea production", "value": "< 2000", "unit": "nM"}, {"measurement": "effect on level of urea", "setting": "[5]; [14]", "value": "not reduced"}, {"measurement": "urea concentration, effect of CNI-1493 alone", "setting": "[5]; partially non-responsive cells, 2.5 μM CNI-1493, FIG. 9", "value": "small degree of inhibitory activity"}, {"measurement": "inhibition of TNF translation", "setting": "[6]", "value": "inhibits TNF (tumor necrosis factor) translation"}, {"measurement": "suppression of production of IL-1, IL-6, MIP-1α and MIP-1β", "setting": "[6]; human peripheral blood mononuclear cells", "value": "suppresses the production of IL-1, IL-6, MIP-1α and MIP-1β"}, {"measurement": "IC50", "setting": "NO production", "value": 5, "unit": "µM"}, {"measurement": "suppression of NO production", "setting": "[7]; [13]", "value": "dose-dependent suppression"}, {"measurement": "inhibition at 2.5 µM", "setting": "[7]; Mus musculus, RAW264.7, read-out: suppression of NO", "value": "> 50", "unit": "%"}, {"measurement": "inhibition at 2.5 µM", "setting": "[7]; Mus musculus, RAW264.7, read-out: suppression of NO accumulation", "value": "< 10", "unit": "%"}, {"measurement": "IC50", "setting": "[7]; Mus musculus, RAW264.7, responsive cultures, stated as approximately the same as the urea IC50, read-out: IC50 with respect to NO production", "value": "< 2000", "unit": "nM"}, {"measurement": "effect on level of NO", "setting": "[7]; [14]", "value": "not reduced"}, {"measurement": "suppression of LPS-stimulated TNF production", "setting": "[8]", "value": "suppresses"}, {"measurement": "suppression of LPS-stimulated urea production", "setting": "[9]", "value": "suppresses"}, {"measurement": "anti-inflammatory effect, paw edema and inflammation", "setting": "rat paw edema", "value": "suppression of rat paw edema and inflammation"}, {"measurement": "charge at physiological pH", "setting": "[10]", "value": "four positive charges"}, {"measurement": "protection against lethal effects of endotoxin", "setting": "[11]", "value": "protects mice against lethal effects of endotoxin"}]}
{"molecule": "α1-acid glycoprotein: other glycoprotein, net negatively charged at physiological pH", "values": [{"measurement": "augmentation of CNI-1493 activity (nitrite production)", "setting": "[7]", "value": "only fetuin was effective in augmenting CNI-1493 therapeutic activity"}]}
{"molecule": "human fetuin glycoprotein: human fetuin glycoprotein (commercially prepared, Sigma) (protein) MKSLVLLLCLAQLWGCHSAPHGPGLIYRQPNCDDPETEEAALVAIDYINQNLPWGYKHTLNQIDEVKVWPQQPSGELFEIEIDTLETTCHVLDPTPVARCSVRQLKEHAVEGDCDFQLLKLDGKFSVVYAKCDSSPDSAEDVRKVCQDCPLLAPLNDTRVVHAAKAALAAFNAQNNGSNFQLEEISRAQLVPLPPSTYVEFTVSGTDCVAKEATEAAKCNLLAEKQYGFCKATLSEKLGGAEVAVTCTVFQTQPVTSQPQPEGANEAVPTPVVDPDAPPSPPLGAPGLPPAGSPPDSHVLLAAPPGHQLHRAHYDLRHTFMGVVSLGSPSGEVSHPRKTRTVVQPSVGAAAGPVVPPCPGRIRHFKV", "values": [{"measurement": "enhancement of CNI-1493 activity (TNF suppression in PBMCs)", "setting": "[1]", "value": "enhanced"}]}
{"molecule": "glycophorin: other glycoprotein, net negatively charged at physiological pH (protein, UniProt P02724 20-150, looked up) Glycophorin-A: LSTTEVAMHTSTSSSVTKSYISSQTNDTHKRDTYAATPRAHEVSEISVRTVYPPEEETGERVQLAHHFSEPEITLIIFGVMAGVIGTILLISYGIRRLIKKSPSDVKPLPSPDTDVPLSSVEIENPETSDQ", "values": [{"measurement": "augmentation of CNI-1493 activity (nitrite production)", "setting": "[7]", "value": "only fetuin was effective in augmenting CNI-1493 therapeutic activity"}]}
{"molecule": "asialofetuin: fetuin glycoprotein treated to remove terminal sialic acid residues (protein, UniProt P12763 19-359, looked up, desialylated, fetuin glycoprotein treated to remove terminal sialic acid residues) Alpha-2-HS-glycoprotein: IPLDPVAGYKEPACDDPDTEQAALAAVDYINKHLPRGYKHTLNQIDSVKVWPRRPTGEVYDIEIDTLETTCHVLDPTPLANCSVRQQTQHAVEGDCDIHVLKQDGQFSVLFTKCDSSPDSAEDVRKLCPDCPLLAPLNDSRVVHAVEVALATFNAESNGSYLQLVEISRAQFVPLPVSVSVEFAVAATDCIAKEVVDPTKCNLLAEKQYGFCKGSVIQKALGGEDVRVTCTLFQTQPVIPQPQPDGAEAEAPSAVPDAAGPTPSAAGPPVASVVVGPSVVAVPLPLHRAHYDLRHTFSGVASVESSSGEAFHVGKTPIVGQPSIPGGPVRLCPGRIRYFKI", "values": [{"measurement": "enhancement of CNI-1493 activity (suppression of urea production)", "setting": "[5]; non-responsive cultures, glycoprotein 1.0 and 2.5 μg/ml, CNI-1493 2.5 μM, FIG. 10", "value": "not nearly as active as fetuin"}]}
{"molecule": "bovine fetuin (Sigma): globular 341-amino acid polypeptide with six internal disulfide bonds and three N-linked and two O-linked oligosaccharide chains (protein, UniProt P12763 19-359, looked up) Alpha-2-HS-glycoprotein: IPLDPVAGYKEPACDDPDTEQAALAAVDYINKHLPRGYKHTLNQIDSVKVWPRRPTGEVYDIEIDTLETTCHVLDPTPLANCSVRQQTQHAVEGDCDIHVLKQDGQFSVLFTKCDSSPDSAEDVRKLCPDCPLLAPLNDSRVVHAVEVALATFNAESNGSYLQLVEISRAQFVPLPVSVSVEFAVAATDCIAKEVVDPTKCNLLAEKQYGFCKGSVIQKALGGEDVRVTCTLFQTQPVIPQPQPDGAEAEAPSAVPDAAGPTPSAAGPPVASVVVGPSVVAVPLPLHRAHYDLRHTFSGVASVESSSGEAFHVGKTPIVGQPSIPGGPVRLCPGRIRYFKI", "values": [{"measurement": "enhancement of CNI-1493 activity (TNF suppression in PBMCs)", "setting": "[1]", "value": "enhanced, in a dose-dependent fashion"}, {"measurement": "enhancement of CNI-1493 activity (suppression of serum TNF)", "setting": "[12]", "value": "greatly enhanced CNI-1493 therapeutic activity"}]}
{"molecule": "fetuin: globular protein of about 60-70 kDa, containing 20-25% carbohydrate (protein, UniProt P12763 19-359, looked up) Alpha-2-HS-glycoprotein: IPLDPVAGYKEPACDDPDTEQAALAAVDYINKHLPRGYKHTLNQIDSVKVWPRRPTGEVYDIEIDTLETTCHVLDPTPLANCSVRQQTQHAVEGDCDIHVLKQDGQFSVLFTKCDSSPDSAEDVRKLCPDCPLLAPLNDSRVVHAVEVALATFNAESNGSYLQLVEISRAQFVPLPVSVSVEFAVAATDCIAKEVVDPTKCNLLAEKQYGFCKGSVIQKALGGEDVRVTCTLFQTQPVIPQPQPDGAEAEAPSAVPDAAGPTPSAAGPPVASVVVGPSVVAVPLPLHRAHYDLRHTFSGVASVESSSGEAFHVGKTPIVGQPSIPGGPVRLCPGRIRYFKI", "values": [{"measurement": "augmentation of CNI-1493 activity (nitrite production)", "setting": "[7]", "value": "only fetuin was effective in augmenting CNI-1493 therapeutic activity"}]}
